Results reported in publication PMC6072471 (MedChemComm, 2017).

Columns and labels:
[1] = test system: rVSIV-ΔG-MarV-GP pseudotype; test: organism not typed; format: cell-based, Marburg virus; details: for IC50: HEK293, 24 h, read-out: ICMarV50
rVSIV-ΔG-G pseudotype = test: microbe, parasite or virus in culture; format: cell-based, Vesicular stomatitis Indiana virus; details: for IC50: Vesicular stomatitis Indiana virus, HEK293, 24 h, read-out: ICVSIV50

SMILES | IC50 [1] [µM] | IC50 (rVSIV-ΔG-G pseudotype) [µM] | specificity of inhibition of MarV-GP-mediated infection (in words) [1] | toxicity (in words) (HEK293 cells) | activity against rVSIV-ΔG-MarV-GP (in words) [1] | activity against rVSIV-ΔG-G (in words) (rVSIV-ΔG-G pseudotype)
CCN1CCN(CCC(=O)O[C@@H]2C[C@@H]3CC[C@@]2(C)C3(C)C)CC1 [Compound 12] | 10 ± 2 | 106 ± 5 | – | – | – | –
CC1(C)[C@H]2CC[C@]1(C)[C@H](OC(=O)CN1CCCC1)C2 [Compound 1] | 52 ± 5 | 239 ± 19 | non-specific inhibitors | – | – | –
CC1(C)[C@H]2CC[C@]1(C)[C@H](OC(=O)CCN1CCNCC1)C2 [Compound 14] | 10 ± 4 | 102 ± 25 | – | – | – | –
CCCCN(CCCC)CCC(=O)O[C@@H]1C[C@@H]2CC[C@@]1(C)C2(C)C [Compound 16] | 6 ± 1 | 48 ± 5 | – | highest toxicity | – | –
CC1CCN(CCC(=O)O[C@@H]2C[C@@H]3CC[C@@]2(C)C3(C)C)CC1 [Compound 6] | 4 ± 1 | 79 ± 19 | highest virus-specific activity | – | – | –
CCN1CCN(CC(=O)O[C@@H]2C[C@@H]3CC[C@@]2(C)C3(C)C)CC1 [Compound 11] | 29 ± 2 | 447 ± 15 | – | – | – | –
CC1(C)[C@H]2CC[C@]1(C)[C@H](OC(=O)CCN1CCOCC1)C2 [Compound 8] | 78 ± 7 | 257 ± 12 | – | – | do not exhibit activity | –
CC1(C)[C@H]2CC[C@]1(C)[C@H](OC(=O)CN1CCOCC1)C2 [Compound 7] | 263 ± 24 | 267 ± 10 | – | – | do not exhibit activity | –
CC1(C)[C@H]2CC[C@]1(C)[C@H](OC(=O)CN1CCNCC1)C2 [Compound 13] | 20 ± 1 | 69 ± 13 | – | – | – | –
CC1(C)[C@H]2CC[C@]1(C)[C@H](OC(=O)CCN1CCCC1)C2 [Compound 2] | 12 ± 1 | 29 ± 6 | non-specific inhibitors | – | – | –
CCCCN(CCCC)CC(=O)O[C@@H]1C[C@@H]2CC[C@@]1(C)C2(C)C [Compound 15] | 11 ± 1 | 20 ± 1 | – | highest toxicity | – | –
COc1ccc(CCN(C)CCCC(C#N)(c2ccc(OC)c(OC)c2)C(C)C)cc1OC (stereo not shown) [Verapamil, reference compound] | 13 ± 1 | > 200 | – | – | – | –
CC1CCN(CC(=O)O[C@@H]2C[C@@H]3CC[C@@]2(C)C3(C)C)CC1 [Compound 5] | 28 ± 2 | 77 ± 16 | – | – | – | –
CC1(C)[C@H]2CC[C@]1(C)[C@H](O)C2 [(–)-Borneol, reference compound] | 203 | > 650 | – | nontoxic | not active | not active
CC1(C)[C@H]2CC[C@]1(C)[C@H](OC(=O)CCN1CCCCC1)C2 [Compound 4] | 9 ± 1 | 121 ± 7 | – | – | – | –
CC1(C)[C@H]2CC[C@]1(C)[C@H](OC(=O)CN1CCCCC1)C2 [Compound 3] | 86 ± 11 | 102 ± 9 | – | – | – | –
CN1CCN(CC(=O)O[C@@H]2C[C@@H]3CC[C@@]2(C)C3(C)C)CC1 [Compound 9] | 47 ± 3 | 187 ± 24 | – | – | – | –
CN1CCN(CCC(=O)O[C@@H]2C[C@@H]3CC[C@@]2(C)C3(C)C)CC1 [Compound 10] | 19 ± 1 | 318 ± 23 | – | – | – | –
